According to patent US20110209253A1, “Method for Improving Plant Health” (BASF SE, priority 2008, published 2011):
Where two headings read alike, the source gives them in different places.

Columns and labels:
[1] = test system: Wheat plants (Triticum aestivum cv. Monopol); assay: Growth-promoting effect on wheat plants after foliar treatment (Example 2); format: in vivo; settings: for Number of tillers: per plant; for activity at 7.81 g/ha / activity at 15.63 g/ha / activity at 31.25 g/ha: Triticum aestivum, 504 h
Procedure: Wheat plants (Triticum aestivum cv. Monopol) were grown in soil with ten plants per pot (13 cm diameter) under greenhouse conditions. Plants at the 2nd leaf stage were sprayed with an aqueous solution of formulated Dimethyl-carbamic acid 2-methylcarbamoyl-2-[(1-methyl-3-trifluoromethyl-1H-pyrazole-4-carbonyl)-amino]-1-(tetrahydro-pyran-4-yl)-ethyl ester (compound 1). The compound was applied at three different dose rates, i.e. 31.25/15.63/7.81 g ai/ha and the spray volume was 750 l/ha. Ten replicate pots with ten plants each were used per treatment. After three weeks (21 days) plants were harvested and growth parameters were determined. The recorded parameters were fresh weight, dry weigh, leaf area (all per pot) and number of tillers (per plant). Mean values of results, standard deviation (SD) and percentage to control were calculated.

[2] = test system: Wheat plants (Triticum aestivum cv. Cubus); assay: Growth-promoting effect on wheat plants after root treatment (hydroponic culture); format: in vivo; set-up: Shoot-FW ± SE / Root-FW ± SE: unit not given here; settings: for Root-FW ± SE / Shoot-FW ± SE / activity at 1 µM / activity at 3 µM: seven days after treatment; for activity at 1 µM / activity at 3 µM: Triticum aestivum, 168 h
Procedure: Wheat plants (Triticum aestivum cv. Cubus) at the 2nd leaf stage were cultivated in 320 mL glass vessels with 300 mL half-strength Linsmaier-Skoog medium (Physiologia Plantarum 18: 100-127, 1964). The solution was aerated throughout experiment. The vessels were incubated randomized in a climate chamber under 16:8 h light:dark cycles (photon flux density 400 μmol m-2 s-1, 400-750 nm, Osram powerstar HQI-R 250W/NDL and Osram krypton 100W lamps) at 22° C. (light):20° C. (dark) and 75% relative humidity (3 plants per vessel, 9 replicate vessels). After 2 days of adaptation, plants were treated with Dimethyl-carbamic acid 2-methylcarbamoyl-2-[(1-methyl-3-trifluoromethyl-1H-pyrazole-4-carbonyl)-amino]-1-(tetrahydro-pyran-4-yl)-ethyl ester (compound 1) which was added to the medium in dimethyl sulfoxide (DMSO) solution (0.1% final concentration of DMSO). Controls received corresponding quantity of DMSO alone, with no adverse effect on the growth of the plants. Seven days after treatment, fresh weights (FW) of shoot and root, as the growth parameters, were measured and mean values±standard error (SE) of 27 plant parts was calculated.

[3] = 7.81 g/ha foliar spray, 21 days, per pot
[4] = 15.63 g/ha foliar spray, 21 days, per pot
[5] = 31.25 g/ha foliar spray, 21 days, per pot

CNC(=O)C(NC(=O)c1cn(C)nc1C(F)(F)F)C(OC(=O)N(C)C)C1CCOCC1 (stereo not shown) [Compound 1, Dimethyl-carbamic acid 2-methylcarbamoyl-2-[(1-methyl-3-trifluoromethyl-1H-pyrazole-4-carbonyl)-amino]-1-(tetrahydro-pyran-4-yl)-ethyl ester]
Number of tillers ([1]; 7.81 g/ha foliar spray, 21 days): 2.9
Leaf area [1, 3]: 1121.1 cm^2
Shoot DW [1, 3]: 4.4 g
Shoot FW [1, 3]: 43.9 g
Number of tillers ([1]; 15.63 g/ha foliar spray, 21 days): 2.8
Leaf area [1, 4]: 1046.3 cm^2
Shoot DW [1, 4]: 4.0 g
Shoot FW [1, 4]: 40.5 g
Number of tillers ([1]; 31.25 g/ha foliar spray, 21 days): 2.8
Leaf area [1, 5]: 1060.3 cm^2
Shoot DW [1, 5]: 4.2 g
Shoot FW [1, 5]: 42.8 g
activity at 7.81 g/ha ([1]; 7.81 g/ha foliar spray, 21 days, read-out: Leaf area % of control): 126%
activity at 7.81 g/ha ([1]; 7.81 g/ha foliar spray, 21 days, read-out: Number of tillers % of control): 118%
activity at 7.81 g/ha ([1]; 7.81 g/ha foliar spray, 21 days, read-out: Shoot DW % of control): 127%
activity at 7.81 g/ha ([1]; 7.81 g/ha foliar spray, 21 days, read-out: Shoot FW % of control): 126%
activity at 15.63 g/ha ([1]; 15.63 g/ha foliar spray, 21 days, read-out: Leaf area % of control): 118%
activity at 15.63 g/ha ([1]; 15.63 g/ha foliar spray, 21 days, read-out: Number of tillers % of control): 114%
activity at 15.63 g/ha ([1]; 15.63 g/ha foliar spray, 21 days, read-out: Shoot DW % of control): 116%
activity at 15.63 g/ha ([1]; 15.63 g/ha foliar spray, 21 days, read-out: Shoot FW % of control): 116%
activity at 31.25 g/ha ([1]; 31.25 g/ha foliar spray, 21 days, read-out: Leaf area % of control): 120%
activity at 31.25 g/ha ([1]; 31.25 g/ha foliar spray, 21 days, read-out: Number of tillers % of control): 114%
activity at 31.25 g/ha ([1]; 31.25 g/ha foliar spray, 21 days, read-out: Shoot DW % of control): 122%
activity at 31.25 g/ha ([1]; 31.25 g/ha foliar spray, 21 days, read-out: Shoot FW % of control): 123%
growth promoting (yield increasing) effect, dose response ([1]; by lowering the dose rate): more pronounced
shoot tillering ([1]; foliar treatment): increased
increase in fresh and dry weight related to control ([1]; foliar treatment, 7.81-31.25 g/ha): up to 26%
Leaf area ([1]; foliar treatment, lowest dose rate gave the highest effect): increased
Root-FW ± SE ([2]; Experiment 1, 1 μM in medium): 0.403 ± 0.015
Shoot-FW ± SE ([2]; Experiment 1, 1 μM in medium): 0.747 ± 0.017
Root-FW ± SE ([2]; Experiment 1, 3 μM in medium): 0.382 ± 0.013
Shoot-FW ± SE ([2]; Experiment 1, 3 μM in medium): 0.733 ± 0.019
Root-FW ± SE ([2]; Experiment 2, 1 μM in medium): 0.342 ± 0.010
Shoot-FW ± SE ([2]; Experiment 2, 1 μM in medium): 0.736 ± 0.024
Root-FW ± SE ([2]; Experiment 2, 3 μM in medium): 0.335 ± 0.012
Shoot-FW ± SE ([2]; Experiment 2, 3 μM in medium): 0.738 ± 0.021
activity at 1 µM ([2]; Experiment 1, 1 μM in medium, read-out: Root-FW % of control): 113%
activity at 1 µM ([2]; Experiment 1, 1 μM in medium, read-out: Shoot-FW % of control): 115%
activity at 3 µM ([2]; Experiment 1, 3 μM in medium, read-out: Root-FW % of control): 107%
activity at 3 µM ([2]; Experiment 1, 3 μM in medium, read-out: Shoot-FW % of control): 112%
activity at 1 µM ([2]; Experiment 2, 1 μM in medium, read-out: Root-FW % of control): 105%
activity at 1 µM ([2]; Experiment 2, 1 μM in medium, read-out: Shoot-FW % of control): 115%
activity at 3 µM ([2]; Experiment 2, 3 μM in medium, read-out: Root-FW % of control): 103%
activity at 3 µM ([2]; Experiment 2, 3 μM in medium, read-out: Shoot-FW % of control): 115%
shoot tillering and adventitious root growth ([2]; root treatment): promoted
stimulation of shoot and root growth relative to controls ([2]; root treatment, 1 and 3 μM, two experiments): up to 15%
